Test results from patent publication US8058243B2, “Method for treating a brain cancer with ifenprodil” (HSC Research and Development Limited Partnership, priority 2006, dated 2011).
Where a name gives a salt, the structure may show the parent alone. Read-outs that look alike come from different tables or passages of the source.

System: murine neural precursor cells (neurosphere cultures)
Test: HTS of LOPAC library against secondary neurosphere cultures, MTT proliferation assay at 3 μM, day 7 (z score, P value)
Format: cell-based, mouse
[1] = LOPAC library screen, 3 μM, MTT, secondary neurosphere cultures, day 7
[2] = LOPAC primary screen, neurosphere MTT proliferation, 3 μM, day 7
[3] = yes/no: significantly inhibited neurosphere proliferation in primary screen
[4] = yes = significantly inhibited neurosphere proliferation (P<0.01) in the primary screen
[5] = LOPAC library screen at 3 μM, secondary neurosphere cultures, MTT
[6] = yes/no: significantly inhibited neurosphere proliferation (P<0.01) in primary screen
[7] = LOPAC screen, neurosphere MTT proliferation, 3 μM, day 7
[8] = LOPAC library screen, 3 μM, MTT, neurosphere cultures
[9] = yes/no: significantly inhibited neurosphere proliferation (P<0.01) in the primary screen
[10] = LOPAC library screen at 3 μM, MTT, secondary neurosphere cultures, screened in singlets
[11] = primary LOPAC screen, 3 μM, MTT, neurosphere proliferation
[12] = yes/no: significantly inhibited neurosphere proliferation in the primary screen

NCC(CC(=O)O)c1ccc(Cl)cc1 (centres unmarked) [(B1)-Baclofen]
Z Score: −1.069

COc1cc(C=C(C#N)C#N)cc(O)c1O [Tyrphostin AG 34]
Z Score [1]: −2.319 | Z score [2]: −2.319 | Activity [3]: no

Br.Cc1o[nH]c(=O)c1CC(N)C(=O)O (centres unmarked) [(B1)-AMPA hydrobromide]
Z Score: −0.4272

CC(N)Cc1c[nH]c2ccc(O)cc12.O=C(O)/C=C\C(=O)O (stereo not drawn) [alpha-Methyl-5-hydroxytryptamine maleate]
Z Score: −0.7796 | Z score [2]: −0.780 | Activity [4]: no

CC[N+](CC)(CC)CCOc1cccc(OCC[N+](CC)(CC)CC)c1OCC[N+](CC)(CC)CC [Gallamine triethiodide]
Z Score [5]: −0.9156 | Z score [2]: −0.916 | Activity [6]: no

Cc1ccc(S(=O)(=O)N[C@@H](CCCCN)C(=O)CCl)cc1.Cl
Activity: no | Z Score: 0.004812 | Z score [2]: 0.005

Br.Br.N=C(N)NCCSSCCNC(=N)N [Guanidinoethyl disulfide dihydrobromide]
Z Score (168 h, 3 µM): −4.521 | Z score (168 h, 3 µM): −4.521 | Activity [4]: yes

CN1C2CCC1CC(NC(=O)c1nn(C)c3ccccc13)C2.O=C(O)/C=C\C(=O)O (centres unmarked) [LY-278,584 maleate]
Z Score: −1.074 | Z score [2]: −1.074 | Activity [4]: no

COc1cc(CC(C)N)c(OC)cc1I.Cl (racemic) [(±)-DOI hydrochloride]
Z score [7]: −1.345 | Activity [6]: no

CN1CCN2c3ccccc3Cc3ccccc3C2C1 (centres unmarked) [Mianserin hydrochloride]
Activity: no | Z Score [8]: 0.9746 | Z score [2]: 0.975

CCCCN1CCC(COC(=O)c2cc(Cl)c(N)c3c2OCCO3)CC1.Cl [SB 204070 hydrochloride]
Z Score: −5.886 | Z score [2]: −5.886 | Activity [9]: yes

CN1CCC(=C2c3ccccc3C=Cc3ccccc32)CC1 [Cyproheptadine hydrochloride]
Z Score (168 h, 3 µM): 1.232 | Z score (168 h, 3 µM): 1.232 | Activity [6]: no

R(−)-N6-(2-Phenylisopropyl)adenosine
Z Score [1]: −2.023 | Z score [2]: −2.023 | Activity [3]: no

(−)-Bicuculline methbromide, 1(S), 9(R)
Activity: no | Z Score: −1.842 | Z score [2]: −1.842

CCC(NC(C)C)C(O)c1ccc(O)c(O)c1.CS(=O)(=O)O (centres unmarked) [Isotharine mesylate]
Z Score: −0.6392 | Z score [2]: −0.639 | Activity [6]: no

CCCCCCCCCCCCCCCCCC(=O)NCC(COP(=O)([O-])OCC[N+](C)(C)C)OCC (racemic) [rac-2-Ethoxy-3-octadecanamido-1-propylphosphocholine]
Z Score [5]: −1.112 | Z score [2]: −1.112 | Activity [6]: no

O=C(OCCN1CCOCC1)C1(c2ccccc2)CCCCC1 [PRE-084]
Z Score: 1.311 | Z score [2]: 1.311 | Activity [9]: no

COC(=O)[C@@H](N)Cc1ccc(O)c(O)c1.Cl [L-3,4-Dihydroxyphenylalanine methyl ester hydrochloride]
Z Score [8]: 0.2769 | Z score [7]: 0.277 | Activity [6]: no

CO/N=C(\C(=O)N[C@@H]1C(=O)N2C(C(=O)O)=C(CSc3nc(=O)c(=O)[nH]n3C)CS[C@H]12)c1csc(N)n1 [Ceftriaxone sodium]
Activity: no | Z Score [10]: 2.23 | Z score [2]: 2.230

Albuterol hemisulfate
Z Score [5]: −0.949 | Z score [2]: −0.949 | Activity [3]: no

CC[C@H](NC(=O)c1c(C)c(-c2ccccc2)nc2ccccc12)c1ccccc1 [SB 222200]
Z Score: −1.695 | Z score [11]: −1.695 | Activity [12]: no

Cl.O=C(O)Cc1c[nH]cn1 [Imidazole-4-acetic acid hydrochloride]
Z Score: −0.9223 | Z score [2]: −0.922 | Activity [6]: no

CC(=O)OCC1=C(C(=O)O)N2C(=O)[C@@H](NC(=O)CSc3ccncc3)[C@H]2SC1 [Cephapirin sodium]
Z Score [8]: 0.6219 | Z score [2]: 0.622 | Activity [9]: no

CCN(CC)C(=S)SSC(=S)N(CC)CC [Tetraethylthiuram disulfide]
Z Score [10]: 2.347 | Z score [11]: 2.347 | Activity [12]: no

Cl.O=C(O)C1CCCN(CCC=C(c2ccccc2)c2ccccc2)C1 (centres unmarked) [SKF 89976A hydrochloride]
Z Score: −0.2328 | Z score [2]: −0.233 | Activity [3]: no

C[C@]12C[C@H](O)[C@H]3[C@@H](CCC4=CC(=O)CC[C@@]43C)[C@@H]1CC[C@@H]2C(=O)CO [Corticosterone]
Activity: no | Z Score [1]: −2.285 | Z score [11]: −2.285

NC[C@@H]1O[C@H](O[C@H]2[C@@H](O)[C@H](O[C@@H]3[C@@H](O)[C@H](N)C[C@H](N)[C@H]3O[C@H]3O[C@H](CO)[C@@H](O)[C@H](O)[C@H]3N)O[C@@H]2CO)[C@H](N)[C@@H](O)[C@@H]1O [Paromomycin sulfate]
Z Score [8]: 0.821

R(−)-N-Allylnorapomorphine hydrobromide
Z Score: −7.839 | Z score [2]: −7.839 | Activity [9]: yes

COC(=O)C1=C(C)NC(C)=C([N+](=O)[O-])C1c1ccccc1C(F)(F)F (racemic) [(±)-Bay K 8644]
Z score [7]: 0.853 | Activity [6]: no

O=C1CC2(CCCC2)CC(=O)N1CCCCN1CCN(c2ncccn2)CC1 [Buspirone hydrochloride]
Activity: no | Z Score (168 h, 3 µM): −1.775 | Z score (168 h, 3 µM): −1.775

C#CCOC(=O)C1=CCCN(C)C1 [Arecaidine propargyl ester hydrobromide]
Z Score: −9.931 | Z score [2]: −9.931 | Activity [9]: yes

CCN(CC)CCOC(=O)c1ccc(N)cc1 [Procaine hydrochloride]
Z Score [8]: 0.5501 | Z score [2]: 0.550 | Activity [9]: no

CCCCNc1c(C(=O)OCC)c(C)nc2c1cnn2CC [Tracazolate]
Z Score [5]: −0.3151 | Z score [11]: −0.315 | Activity [12]: no

C#C[C@]1(O)CC[C@H]2[C@@H]3CCC4=Cc5oncc5C[C@]4(C)[C@H]3CC[C@@]21C [Danazol]
Z Score [10]: 2.152 | Z score [7]: 2.152 | Activity [6]: no

Oxotremorine sesquifumarate salt
Z Score: 0.8552 | Z score [2]: 0.855 | Activity [3]: no

CCCn1c(=O)[nH]c(=O)c2[nH]cnc21 [3-n-Propylxanthine]
Z Score [5]: −1.094 | Z score [2]: −1.094 | Activity [4]: no

CCCOc1ccccc1-c1nc2nn[nH]c2c(=O)[nH]1 [Zaprinast]
Z Score [1]: −2.506 | Z score [2]: −2.506 | Activity [4]: yes

CC(C)[N+]1(C)[C@@H]2CC[C@H]1CC(OC(=O)C(CO)c1ccccc1)C2.[Br-] (some centres unmarked) [Ipratropium bromide]
Z Score: −0.308 | Z score [2]: −0.308 | Activity [6]: no

CNC(=O)[C@H]1O[C@@H](n2cnc3c(N)ncnc32)[C@H](O)[C@@H]1O [5′-N-Methyl carboxamidoadenosine]
Z Score: −2.582 | Z score [2]: −2.582 | Activity [9]: yes

NCCCCCC(=O)O [6-Aminohexanoic acid]
Activity: no | Z Score: −2.179 | Z score: −2.179

COCCCC/C(=N\OCCN)c1ccc(C(F)(F)F)cc1 [Fluvoxamine maleate]
Activity: no | Z Score [8]: 0.1323 | Z score [2]: 0.132

CC[N+](C)(CC)CC(=O)Nc1c(C)cccc1C.[Cl-] [Lidocaine N-methyl hydrochloride]
Z Score [5]: −0.6828 | Z score [2]: −0.683 | Activity [6]: no

NCc1cc(=O)[nH]o1 [Muscimol hydrobromide]
Z Score: 0.1863 | Z score [2]: 0.186 | Activity [6]: no

CN1CCN(C2=Nc3cc(Cl)ccc3Nc3ccccc32)CC1 [Clozapine]
Z Score (168 h, 3 µM): 0.5473 | Z score (168 h, 3 µM): 0.547

C#CCN(C)CCCOc1ccc(Cl)cc1Cl [Clorgyline hydrochloride]
Activity: no | Z Score [10]: 1.52 | Z score [2]: 1.520

CN1CCN(CC/C=C2/c3ccccc3Sc3ccc(S(=O)(=O)N(C)C)cc32)CC1 [Thiothixene hydrochloride]
Activity: no | Z Score (168 h, 3 µM): −1.899 | Z score (168 h, 3 µM): −1.899

C=CC[C@H](N)C(=O)O [L-allylglycine]
Z Score (168 h, 3 µM): −1.155 | Z score (168 h, 3 µM): −1.155 | Activity [12]: no

Oc1ccc(Cn2ccnc2S)cc1 [1-(4-Hydroxybenzyl)imidazole-2-thiol]
Z Score (168 h, 3 µM): 0.7628 | Z score (168 h, 3 µM): 0.763 | Activity [6]: no

CC1CCN(CC[C@H]2CCCN2S(=O)(=O)c2cccc(O)c2)CC1.Cl [SB 269970 hydrochloride]
Z Score: −1.1 | Z score [2]: −1.100 | Activity [3]: no

NC(=O)c1ncn([C@@H]2O[C@H](CO)[C@@H](O)[C@H]2O)c1O [Mizorbine]
Z score [2]: 1.642 | Activity [4]: no

CN(C)CCC(c1ccc(Cl)cc1)c1ccccn1.O=C(O)/C=C\C(=O)O (single isomer, unassigned; (+)) [(+)-Chlorpheniramine maleate]
Activity: no | Z Score [1]: −1.272 | Z score [2]: −1.272

CCCCCC(O)c1cccc(OCc2ccc3ccccc3n2)c1 (centres unmarked) [REV 5901]
Z Score (168 h, 3 µM): −1.184 | Z score (168 h, 3 µM): −1.184 | Activity [3]: no

OC[C@H]1O[C@@H](n2cnc3c(NC4CCCCC4)ncnc32)[C@H](O)[C@@H]1O [N6-Cyclohexyladenosine]
Z Score [1]: −2.883 | Z score [2]: −2.883 | Activity [9]: yes
